The source of these data is PubChem BioAssay AID179 (DTP/NCI, 2004).

Activity calls are given as the source filed them.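 How the source made its calls: active means compounds giving half or more protection of infected cells from virus-caused growth loss, again on retest; inactive means the rest.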 Where a SMILES comes first, the peptide text is derived from it. [ ]: non-standard residue; d: D form. The star is where a group is joined. ξ: configuration not given here. X17 = O=C(OCc1ccccc1)[C@@H]1CCC[C@H]1N*; Fmoc = O=C(OCC1c2ccccc2-c2ccccc21)*; ξW = NC(Cc1c[nH]c2ccccc12)C(=O)O; ξF = NC(Cc1ccccc1)C(=O)O; Cbz = O=C(OCc1ccccc1)*; Boc = CC(C)(C)OC(=O)*; ξK = NCCCCC(N)C(=O)O; ξT = CC(O)C(N)C(=O)O; tBu = CC(C)(C)*

The test deals with CEM cells HIV-1 protection, formazan growth assay. Description: NCI AIDS Antiviral Assay. The note with it: for IC50: measured here: growth of uninfected CEM cells. The method in brief:
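Steps: treat uninfected and HIV-1-infected human CEM cells at five drug levels; quantify growth by soluble formazan; retest any compound reaching 50% protection; classify actives from the retest.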

What is called EC50 is the concentration that produces a half-maximal response. For orientation: IC50 means the concentration that inhibits the measured activity by half. As for `CC(C)c1cc2c3c(c1O)OC(=O)C[C@@]3(C)C1[C@@H](OC(=O)C1(C)C)C2=O` (stereo partly drawn), the EC50 was over 501 µM and the IC50 was 295 µM. With `Cc1[nH]n(C(=N)N)c(=O)c1CCO`, the EC50 was over 200 µM and the 50% inhibitory concentration (IC50) was over 200 µM.

As for `c1cn(C23C4C5C6C4C2C6C53)cn1` (stereo not drawn), the EC50 is over 200 µM and the IC50 was over 200 µM. Consider `COC(=S)NP(=O)(NC(=S)OC)NC(=S)OC`, for which the EC50 is over 200 µM and the IC50 was over 200 µM. As for `CCOC(=O)C1SC(=Nc2ccc(Cl)c(Cl)c2)N=C1C` (stereo not drawn), the EC50 was over 11.5 µM and the IC50 was over 11.5 µM.

Regarding `Cn1[nH]c(=O)ccc1=O`, the EC50 was over 2000 µM and the IC50 was 1780 µM.

On to `COc1cccc(OC)c1/C=C1\OC(=O)c2cccc(OC)c21`, for which the EC50 was over 20 µM and the IC50 was found to be 1.17 µM.

On to `CN(C)C(=S)/N=c1\ss/c(=N\S(=O)(=O)c2ccccc2)n1C`, for which the outcome was inactive. On the same count and under the same terms, under `CN1C(=O)CCSC1=S` stands “inactive”; under `CC1=C2C(=CC(C)(CO)C2O)C(=O)C(C)(O)C12CC2` (stereo not drawn), “inactive”.

For the compound `COc1cc(C2(C)SCCCS2)cc(OC)c1OC`, the EC50 was over 182 µM and the IC50 is over 182 µM. Regarding `Nc1ncnc2c1ncn2C1OC(CO)C2NP(=O)(N(CCCl)CCCl)OC21` (stereo not drawn), the EC50 was over 200 µM, the outcome was inactive and the IC50 is over 200 µM.

On to `CC(=O)Cc1cc(=O)c2c(C)cc(O)c(C3OC(CO)C(O)C(O)C3O)c2o1` (stereo not drawn), for which the EC50 is 31.6 µM and the IC50 was determined as 316 µM.

As to `CCCCCCOC(=O)CC1CC(C(C)=O)C1(C)C` (stereo not drawn), the EC50 was over 200 µM and the IC50 was over 200 µM. For `CCOC(=O)C12CCCC1(O)N(NC(=O)c1cccc(Cl)c1)C(C)=C2C(=O)OC` (stereo not drawn), the EC50 was over 427 µM and the IC50 was 123 µM.

In the case of `CN(C)c1cc[n+](-c2c([O-])c3ccccc3n(-c3ccccc3)c2=O)cc1`, the EC50 was over 200 µM and the IC50 is 195 µM.

For `COCn1c(C)c(C)c2c(=O)oc(N(C)C)nc21`, the EC50 is over 200 µM and the IC50 is 138 µM. With `Cc1ccc(SSc2ccc(C)cc2C(=O)O)c(C(=O)O)c1`, the EC50 was over 200 µM and the IC50 was over 200 µM. Turning to `COc1ccc(OC)c(/C=C/c2cnnc3ccccc23)c1`, the EC50 was over 64.6 µM and the IC50 turned out to be 3.16 µM. On the same counts, the results for `N#C/C(=C\c1cccc(C#N)c1)C(=O)O` are over 50.1 µM and over 50.1 µM. Regarding `CCOc1ccc(NC(=O)C(=O)C(C(=O)c2ccc3ccccc3c2)C2OC(=O)c3ccccc32)cc1` (stereo not drawn), the EC50 was over 52.5 µM and the IC50 is 45.7 µM.

With `Cc1ccnn1CCc1ccc(Cl)cc1Cl`, the EC50 was over 200 µM and the IC50 stood at 95.5 µM. On the same counts, the results for `CCN=C(N)Nc1ccccc1` are over 200 µM and 132 µM.

Consider `Cc1cc(C)nc(NS(=O)(=O)c2ccc(Nc3c4ccccc4nc4c(C(=O)N5CCN(CCOS(C)(=O)=O)CC5)cccc34)cc2)n1`, for which the EC50 is over 42.7 µM and the IC50 is over 42.7 µM. Regarding `O=C1CC(c2c[nH]c3ccccc23)C(=O)N1c1ccccc1` (stereo not drawn), the outcome was inactive. As to `CCOC(CN(C)C(=S)Nc1cccc2ccccc12)OCC`, the EC50 is over 200 µM and the IC50 is 158 µM. In the case of `C[n+]1c2ccccc2c(CNC(CS)C(=O)O)c2ccccc21` (stereo not drawn), the outcome was inactive. For `CN(N)c1cnn(-c2ccccc2)c(=O)c1Cl`, the EC50 is over 200 µM and the IC50 was over 200 µM. In the case of `CCC1(O)C(=O)OCc2c1cc(-c1ccc(Cl)cc1)nc2OC` (stereo not drawn), the EC50 was over 200 µM and the IC50 was over 200 µM. For `CC(OC(C)(C)C)C(NC(=O)C(CCCCNC(=O)OC(C)(C)C)NC(=O)C(Cc1c[nH]c2ccccc12)NC(=O)C(Cc1ccccc1)NC(=O)OCC1c2ccccc2-c2ccccc21)C(=O)NC(Cc1ccccc1)C(=O)N[C@@H]1CCC[C@H]1C(=O)OCc1ccccc1` (stereo partly drawn) (Fmoc-[ξF][ξW][ξK](Boc)[ξT](tBu)[ξF]-X17), the outcome was inactive. In the case of `Cc1nn(-c2ccccc2)c2c1N=C(C(=O)O)CC(c1ccccc1)=N2`, the EC50 was over 200 µM and the IC50 was determined as 91.2 µM. On the same counts, the results for `COC(=O)CC1NC(=O)C1C(C)O[Si](C)(C)C(C)(C)C` (stereo not drawn) are over 603 µM and 288 µM. Take `Cn1cccc1/C=C/c1cc(Br)c(/C=C/c2cccn2C)cc1Br`: the outcome was inactive. For the compound `COC(=O)CCc1c(Cc2ccc[nH]2)[nH]c(C(=O)OCc2ccccc2)c1C`, the EC50 was over 200 µM and the IC50 came out at 30.9 µM. As to `CC(C)C(NC(=O)C1CCCN1C(=O)OCc1ccccc1)C(=O)O` (stereo not drawn) (Cbz-Pro-Val-OH; configuration not given here), the EC50 was over 724 µM and the IC50 is over 724 µM. With `Cc1cc(S(=O)(=O)Nc2n[nH]c(N)n2)c(Cl)cc1Cl`, the EC50 was over 200 µM and the IC50 is over 200 µM. Regarding `NNC(=O)c1n[nH]nc1SSc1n[nH]nc1C(=O)NN`, the outcome was inactive. In the case of `Cc1cc2c(c3c1c1ccccc1n3C)C(=O)c1ccccc1C2=O`, the EC50 was over 1.7 µM and the IC50 was over 1.7 µM.

For the compound `CCCOc1ccc(/C(Cl)=C(\C=O)c2ccc(OC)c(OC)c2)cc1OCCC`, the EC50 was over 4.79 µM and the IC50 is over 4.79 µM.

As for `O=C1NC(O)c2cccc([N+](=O)[O-])c2O1` (stereo not drawn), the EC50 was over 200 µM and the IC50 came out at 61.7 µM. Consider `O=c1ccn(C2SC(CO)CC2F)c(=O)[nH]1` (stereo not drawn), for which the EC50 is over 25.1 µM and the IC50 is over 25.1 µM. Consider `CCCCCCCCC/C=C/C=C/C(=O)NCC(=O)NC1C(O)C(O)C(Nc2ncnc3nc[nH]c23)OC1C(O)CO` (stereo not drawn), for which the EC50 is over 43.7 µM and the IC50 came out at 0.158 µM. As for `COC1/C=C/OC2(C)Oc3c(C)c(O)c4c(O)c(c(/C=N/n5c(=O)[nH]c6ccccc6c5=O)c(O)c4c3C2=O)NC(=O)/C(C)=C\C=C\C(C)C(O)C(C)C(O)C(C)C(OC(C)=O)C1C` (stereo not drawn), the EC50 was over 200 µM and the IC50 turned out to be 29.5 µM. For the compound `COc1ccc2c3c1C(=O)CCC3CO2` (stereo not drawn), the result was inactive. Turning to `COc1ccc2nc3cc(Cl)ccc3c(NCCNC(=O)Cn3c(=O)n(C)c(=O)c4c3nc3c(c(=O)n(C)c(=O)n3C)[n+]4[O-])c2c1`, the EC50 is over 100 µM and the IC50 stood at 39.8 µM. On the same counts, the results for `COc1cccc(/C=C2/Sc3scc(-c4ccccc4)[n+]3C2=O)c1O` are over 200 µM and 11.7 µM. On the same counts, the results for `C=C1CN(S(=O)(=O)c2ccc(C)cc2)CCN(C(=O)OC(C)(C)C)CCN(S(=O)(=O)c2ccc(C)cc2)C1` are over 200 µM and 20 µM.

As to `COC(=O)N1CC[C@]2(CC=C(C)C)c3ccccc3N(S(=O)(=O)c3ccccc3)[C@H]12`, the EC50 is over 100 µM and the IC50 turned out to be 24.5 µM.

For `COc1ccc(OCC(=O)O)c2c1CCC(C(C)C)C2=O` (stereo not drawn), the result was inactive. On to `O=C(NC(=O)c1c(F)cccc1F)Nc1ncc(Cl)cc1Cl`, for which the EC50 is over 200 µM and the IC50 is over 200 µM. In the case of `C#CCNCC(=O)O`, the EC50 was 46.8 µM and the IC50 was over 200 µM. With `Nc1nc(Cl)cc(OCC2(O)CC(COC(=O)c3ccccc3)C2)n1` (stereo not drawn), the EC50 is over 200 µM and the IC50 worked out at 60.3 µM. On the same counts, the results for `COC(=O)c1ccccc1C1CN=NC12Cc1ccc(C)c(C)c1C2=O` (stereo not drawn) are over 200 µM and 37.2 µM. On the same counts, the results for `Cc1cn(C(C)OCCO)c(=O)[nH]c1=O` (stereo not drawn) are over 200 µM and over 200 µM. On the same counts, the results for `O=C1c2cc([N+](=O)[O-])ccc2-c2c(S)cccc21` are over 200 µM and 50.1 µM.

As to `CC(=O)O[C@H]1CCC2[C@@H]3CCC4=C(O)c5nocc5C[C@]4(C)C3CC[C@@]21C` (stereo partly drawn), the EC50 was over 70.8 µM. Consider `Cc1cn(C2CC(N=[N+]=[N-])C(COC(=O)[C@@]3(O)CCC4C5CCC6=CC(=O)C=C[C@]6(C)C5[C@@H](O)C[C@@]43C)O2)c(=O)[nH]c1=O` (stereo partly drawn), for which the EC50 is 1.15 µM and the IC50 amounted to 22.9 µM. On the same counts, the results for `CC(C)n1c2c(c3ccccc3c1=O)C(=O)c1ccccc1-2` are over 64.6 µM and over 64.6 µM.

As for `OC(COc1ccc2ccccc2c1)COc1ccc2ccccc2c1`, the EC50 is over 200 µM and the IC50 worked out at 138 µM.

On to `O=c1nc(NC(c2ccccc2)(c2ccccc2)c2ccccc2)ccn1CCO`, for which the outcome was inactive. As to `OC(c1ccccn1)c1c(Cl)cccc1Cl` (stereo not drawn), the EC50 is over 200 µM and the IC50 is over 200 µM. Consider `CCOC(=O)c1ccccc1-c1c2cc(Br)c(=O)c(Br)c-2oc2c(Br)c(O)c(Br)cc12`, for which the EC50 was over 200 µM and the IC50 is 12 µM. Consider `O=C1OCC2OC(O)C(O)C(O)C2OC(=O)c2cc(O)c(O)c(O)c2-c2c(O)c(O)c3oc(=O)c4c(c(O)c(O)c5oc(=O)c2c3c54)-c2c1cc(O)c(O)c2O` (stereo not drawn), for which the EC50 was 4.17 µM and the IC50 was 14.8 µM. As to `C[N+]1(CCC(C(N)=O)(c2ccccc2)c2ccccc2)CCCC12CCCCC2` (stereo not drawn), the result was inactive. For `CC(=O)Nc1ccc(/C=c2\sc3nnc(/C=C/c4ccccc4)n3c2=O)cc1`, the EC50 was over 93.3 µM and the IC50 was over 93.3 µM. `C[C@]12CC[C@H](CCC=C(c3cc(Cl)c(O)c(C(=O)O)c3)c3cc(Cl)c(O)c(C(=O)O)c3)C[C@@H]1CC[C@@H]1[C@@H]2CC[C@]2(C)[C@@H](CCC=C(c3cc(Cl)c(O)c(C(=O)O)c3)c3cc(Cl)c(O)c(C(=O)O)c3)CC[C@@H]12`: the EC50 is 6.61 µM and the IC50 came out at 110 µM. As to `CCC(CC)(C(=O)O)C(=O)O`, the EC50 is over 200 µM and the IC50 is over 200 µM. For `O=[N+]([O-])c1ccc(-c2nc3c(o2)CCC3)cc1`, the EC50 is over 200 µM and the IC50 is 195 µM. On the same counts, the results for `COC(=O)C1(F)C(=O)NC(=O)NC1O` (stereo not drawn) are over 200 µM and 91.2 µM. `COc1cc(C(=O)Nc2cccc3ccccc23)c(Br)c(OC)c1OC`: the EC50 was over 45.7 µM and the IC50 was over 45.7 µM.
